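GI50: concentration for 50% inhibition of growth. TGI marks complete inhibition of growth.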
Columns and labels:
Assay in all cases: DTP human tumour cell line panel, 384-well format
[1] = system: EKVX NSCLC
[2] = system: COLO 205 colon
[3] = system: RXF 393 renal
[4] = system: SR leukemia
[5] = system: MCF7 breast
[6] = system: SF-295 CNS
[7] = system: LOX IMVI melanoma
[8] = system: ACHN renal
[9] = system: OVCAR-3 ovarian
[10] = system: K-562 leukemia
[11] = system: CCRF-CEM leukemia
[12] = system: A549 NSCLC
[13] = system: SF-268 CNS
[14] = system: NCI-H460 NSCLC
[15] = system: RPMI-8226 leukemia
[16] = system: U251 glioblastoma
[17] = system: HT29 colon
[18] = system: UO-31 renal
[19] = system: M14 melanoma
[20] = system: HS 578T breast
[21] = system: NCI-H522 lung
[22] = system: UACC-257 melanoma
[23] = system: HOP-92 NSCLC
[24] = system: KM12 colon
[25] = system: 786-0 renal
[26] = system: T-47D breast
[27] = system: SK-MEL-28 melanoma
[28] = system: HL-60(TB) leukemia
[29] = system: SK-MEL-5 melanoma

With `N#CC1(c2ccc(NC(=O)c3cccnc3NCc3ccncc3)cc2)CCCC1` the GI50 [1] was 6.32 µM, the TGI [1] was 25.8 µM and the GI50 [2] was 13.4 µM. For the same molecule, the TGI [2] was 37.6 µM, the GI50 [3] was 1.84 µM and the TGI [3] was 5.83 µM. For the same molecule, the GI50 [4] was 2.45 µM, the TGI [4] was 4.9 µM and the GI50 [5] was 5.9 µM. For the same molecule, the TGI [5] was 21.2 µM, the GI50 [6] was 9.76 µM and the TGI [6] was 21.5 µM. The GI50 [7] was 13.3 µM, the TGI [7] was 26.1 µM and the GI50 [8] was 13.7 µM. The TGI [8] was 36.2 µM, the GI50 [9] was 9.01 µM and the TGI [9] was 21.7 µM. It also gave a GI50 [10] of 2.88 µM, a TGI [10] of 12.2 µM and a GI50 [11] of 4.22 µM. The TGI [11] was 17.6 µM, the GI50 [12] was 12.1 µM and the TGI [12] was 25.5 µM. The GI50 [13] was 12.9 µM, the TGI [13] was 27.2 µM and the GI50 [14] was 7.74 µM. For the same molecule, the TGI [14] was 20.3 µM, the GI50 [15] was 1.95 µM and the TGI [15] was 5.66 µM. It also gave a GI50 [16] of 12.6 µM, a TGI [16] of 25.1 µM and a GI50 [17] of 3.99 µM. For the same molecule, the TGI [17] was 12.6 µM, the GI50 [18] was 12.6 µM and the TGI [18] was 25.2 µM. It also gave a GI50 [19] of 12.6 µM, a TGI [19] of 30 µM and a GI50 [20] of 3.38 µM. It also gave a TGI [20] of 15.2 µM, a GI50 [21] of 10.5 µM and a TGI [21] of 22.5 µM. For the same molecule, the GI50 [22] was 10.4 µM, the TGI [22] was 25.1 µM and the GI50 [23] was 10.3 µM. For the same molecule, the TGI [23] was 23.8 µM, the GI50 [24] was 13 µM and the TGI [24] was 26.5 µM. The GI50 [25] was 4.39 µM, the TGI [25] was 15.5 µM and the GI50 [26] was 2.75 µM. It also gave a TGI [26] of 14.5 µM, a GI50 [27] of 13.8 µM and a TGI [27] of 40.6 µM. The GI50 [28] was 2.05 µM, the TGI [28] was 3.76 µM and the GI50 [29] was 2.82 µM. The TGI [29] was 13 µM.

Source: PubChem BioAssay (NCI)
